Data: patent publication US20240174638A1, “HETEROARYL DERIVATIVES AS APELIN RECEPTOR AGONISTS” (RESEARCH TRIANGLE INSTITUTE, priority 2021, published 2024)

What was measured:
in vitro [1] = conditions: human
Rat plasma protein = conditions: 6 h, 1 μM
in vitro [2] = conditions: rat, pH 7.4
in vitro [3] = conditions: mouse, pH 7.4
Mouse plasma protein = conditions: 6 h, 1 μM
Human plasma protein = conditions: 6 h, 1 μM
[4] = system: Salmonella typhimurium (TA98, TA100, TA1535 and TA1537)
[5] = system: BLEO-induced lung fibrosis in male C57BL/6 mice; assay: Chronic (21-day) bleomycin-induced lung fibrosis model, prophylactic (Px) and therapeutic (Tx) arms; type: in vivo, mouse
[6] = relative to Vehicle-treated BLEO-instilled controls

| Compound | recovery at 6 h, 1 μM (in vitro [1]) [%] | % Protein Bound Rep 1 (Rat plasma protein) [%] | % Protein Bound Rep 2 (Rat plasma protein) [%] | % Protein Bound Rep 3 (Rat plasma protein) [%] | Buffer Concentration Rep 1 (Rat plasma protein) [nM] | Buffer Concentration Rep 2 (Rat plasma protein) [nM] | Buffer Concentration Rep 3 (Rat plasma protein) [nM] | recovery at 6 h, 1 μM (in vitro [2]) [%] | recovery at 6 h, 1 μM (in vitro [3]) [%] | % Protein Bound Rep 1 (Mouse plasma protein) [%] | % Protein Bound Rep 2 (Mouse plasma protein) [%] | % Protein Bound Rep 3 (Mouse plasma protein) [%] | Buffer Concentration Rep 1 (Mouse plasma protein) [nM] | Buffer Concentration Rep 2 (Mouse plasma protein) [nM] | Buffer Concentration Rep 3 (Mouse plasma protein) [nM] | Mean % Protein Bound (Mouse plasma protein) [%] | Plasma Concentration Rep 2 (Mouse plasma protein) [nM] | Plasma Concentration Rep 3 (Mouse plasma protein) [nM] | % Protein Bound Rep 1 (Human plasma protein) [%] | % Protein Bound Rep 2 (Human plasma protein) [%] | also measured |
| --- | --- | --- | --- | --- | --- | --- | --- | --- | --- | --- | --- | --- | --- | --- | --- | --- | --- | --- | --- | --- | --- |
| CCCC(=O)Nc1ccc(OCC(O)CNC(C)C)c(C(C)=O)c1 (stereo not drawn) [Acebutolol] | 99.4 | −11.35 | −26.18 | −33.75 | 552.8 | 571.3 | 639.1 | 105 | 60.3 | 18.36 | 23.23 | 20.05 | 274.4 | 258.1 | 268.1 | 20.50 | 336.2 | 335.3 | −12.84 | −22.81 | Plasma Concentration Rep 1 (Rat plasma protein): 455.6 nM; Plasma Concentration Rep 2 (Rat plasma protein): 452.8 nM; Plasma Concentration Rep 3 (Rat plasma protein): 477.8 nM; Plasma Concentration Rep 1 (Mouse plasma protein): 336.0 nM; % Protein Bound Rep 3 (Human plasma protein): −2.59%; Buffer Concentration Rep 1 (Human plasma protein): 544.3 nM; Buffer Concentration Rep 2 (Human plasma protein): 539.8 nM; Buffer Concentration Rep 3 (Human plasma protein): 494.8 nM; Plasma Concentration Rep 1 (Human plasma protein): 482.3 nM; Plasma Concentration Rep 2 (Human plasma protein): 439.6 nM; Plasma Concentration Rep 3 (Human plasma protein): 482.3 nM |
| COc1ccc2nc3cc(Cl)ccc3c(NCCCNCCCl)c2c1 [ICR-191] |  |  |  |  |  |  |  |  |  |  |  |  |  |  |  |  |  |  |  |  | Cytotoxicity Code [4]: N; Mean Revertant Colony Counts ([4]; Salmonella typhimurium): 66.00; Ratio ([4]; Salmonella typhimurium): 28.33 |
| Cc1ccc(=O)n(-c2ccccc2)c1 [PIRF, Pirfenidone, reference compound] |  |  |  |  |  |  |  |  |  |  |  |  |  |  |  |  |  |  |  |  | 21-day survival rate ([5]; BLEO-instilled mice, Px PIRF 200 mg/kg/day p.o. BID): 94%; ΔBW ([5]; D0-D21, relative to Vehicle-treated BLEO-instilled controls): Neither EXAMPLE 22 nor PIRF affected; composite Collagen Volume Fraction (CVF) ([5]; Px PIRF 200 mg/kg/day, Vehicle 2.63±0.24%): 1.87±0.19%; composite Tissue Collagen Fraction (TCF) ([5]; Px PIRF 200 mg/kg/day, Vehicle 5.58±0.34%): 4.43±0.34%; LW indexed to tibia length (LW:TL) [5, 6]: Neither EXAMPLE 22 nor PIRF affected; endpoint lung OH-P content [5, 6]: Neither EXAMPLE 22 nor PIRF affected; endpoint lung weight (LW) [5, 6]: Neither EXAMPLE 22 nor PIRF affected; final BW [5, 6]: Neither EXAMPLE 22 nor PIRF affected; serial BW [5, 6]: Neither EXAMPLE 22 nor PIRF affected |
| CC(=O)CC(c1ccccc1)c1c(O)c2ccccc2oc1=O (stereo not drawn) [Warfarin] | 95.4 | 99.46 | 99.25 | 97.82 | 4.4 | 5.9 | 17.7 | 81.4 | 98.2 | 89.13 | 90.27 | 91.02 | 91.8 | 89.5 | 82.3 | 90.10 | 919.8 | 917.0 | 97.59 | 98.26 | Mean % Protein Bound (Rat plasma protein): 98.80%; % Protein Bound Rep 3 (Human plasma protein): 98.01%; Buffer Concentration Rep 1 (Human plasma protein): 21.6 nM; Buffer Concentration Rep 2 (Human plasma protein): 17.3 nM; Buffer Concentration Rep 3 (Human plasma protein): 18.4 nM; Mean % Protein Bound (Human plasma protein): 97.96%; Plasma Concentration Rep 1 (Human plasma protein): 897.5 nM; Plasma Concentration Rep 2 (Human plasma protein): 993.2 nM; Plasma Concentration Rep 3 (Human plasma protein): 926.2 nM |
